This passage reports IC50 results from patent US20120157451A1, “RAF INHIBITOR COMPOUNDS AND METHODS OF USE THEREOF” (GENENTECH, INC, priority 2009, published 2012).

As a reminder, the IC50 is the concentration needed to halve the response being measured. Higher therefore signals weaker potency in that assay.

For assay [1], the target named is T1, V600E full-length B-Raf (Homo sapiens, UniProt P15056, V600E).
T1 construct: made in house; host or cells: Sf9 insect cells (baculovirus)
Description: B-Raf IC50 assay (incorporation of radiolabeled phosphate from [γ-33P]ATP into FSBA-modified wild-type MEK). It counts as biochemical. The text has this: Determining the activity of Raf in the sample is possible by a number of direct and indirect detection methods (US 2004/0082014). Activity of human recombinant B-Raf protein may be assessed in vitro by assay of the incorporation of radio labeled phosphate to recombinant MAP kinase (MEK), a known physiologic substrate of B-Raf, according to US 2004/0127496 and WO 03/022840.
Activity of human recombinant B-Raf protein may be assessed in vitro by assay of the incorporation of radio labeled phosphate to recombinant MAP kinase (MEK), a known physiologic substrate of B-Raf, according to US 2004/0127496 and WO 03/022840. Catalytically active human recombinant B-Raf protein is obtained by purification from sf9 insect cells infected with a human B-Raf recombinant baculovirus expression vector.
Incubations were carried out at 22° C. in a Costar 3365 plate (Corning). Prior to the assay, the B-Raf and FSBA-MEK were preincubated together in assay buffer at 1.5× (20 μL of 30 nM and 1.5 μM, respectively) for 15 minutes, and the assay was initiated by the addition of 10 μL of 10 μM ATP. Following the 60-minute incubation, the assay mixtures were quenched by the addition of 100 μL of 25% TCA, the plate was mixed on a rotary shaker for 1 minute, and the product was captured on a Perkin-Elmer GF/B filter plate using a Tomtec Mach III Harvester. After sealing the bottom of the plate, […] of Bio-Safe II (Research Products International) scintillation cocktail were added to each well and the plate was top-sealed and counted in a Topcount NXT (Packard).

Assay [2] deals with basal ERK1/2 phosphorylation in Malme-3M cells. The assay can be described thus: Cellular ERK 1/2 phosphorylation assay. It counts as cell-based. The note with it: Homo sapiens, 1 hour incubation, pERK normalized to total ERK, representative data of multiple tests. The method, then: Inhibition of basal ERK1/2 phosphorylation was determined by the following in vitro […], which comprises incubating cells with a compound of Formula I for 1 hour and quantifying the fluorescent pERK signal on fixed cells and normalizing to total ERK signal.
Materials and Methods: Malme-3M cells were obtained from ATCC and grown in RPMI-1640 supplemented with 10% fetal bovine serum. Cells were plated in 96-well plates at 24,000 cells/well and allowed to attach for 16-20 hours at 37° C., 5% CO2. The media was removed, and DMSO-diluted compounds were added in RPMI-1640 at a final concentration of 1% DMSO. The cells were incubated with the compounds for 1 hour at 37° C., 5% CO2. The cells were washed with PBS and fixed in 3.7% formaldehyde in PBS for 15 minutes. This was followed by washing in PBS/0.05% Tween20 and permeabilizing in −20° C. 100% MeOH for 15 minutes. Cells were washed in PBS/0.05% Tween20 then blocked in Odyssey blocking buffer (LI-COR Biosciences) for 1 hour. Antibodies to phosphorylated ERK (1:400, Cell Signaling #9106, monoclonal) and total ERK (1:400, Santa Cruz Biotechnology #sc-94, polyclonal) were added to the cells and incubated 16-20 hours at 4° C. After washing with PBS/0.05% Tween20, the cells were incubated with fluorescently-labeled secondary antibodies (1:1000 goat anti-rabbit IgG-IRDye800, Rockland and 1:500 goat anti-mouse IgG-Alexa Fluor 680, Molecular Probes) for an additional hour. Cells were then washed and analyzed for fluorescence at both wavelengths using the Odyssey Infrared Imaging System (LI-COR Biosciences). Phosphorylated ERK signal was normalized to total ERK signal.

Setting [3] is: 4 μM ATP, 60-minute incubation, representative data of multiple tests.

T1 sequence (P15056 whole entry V600E): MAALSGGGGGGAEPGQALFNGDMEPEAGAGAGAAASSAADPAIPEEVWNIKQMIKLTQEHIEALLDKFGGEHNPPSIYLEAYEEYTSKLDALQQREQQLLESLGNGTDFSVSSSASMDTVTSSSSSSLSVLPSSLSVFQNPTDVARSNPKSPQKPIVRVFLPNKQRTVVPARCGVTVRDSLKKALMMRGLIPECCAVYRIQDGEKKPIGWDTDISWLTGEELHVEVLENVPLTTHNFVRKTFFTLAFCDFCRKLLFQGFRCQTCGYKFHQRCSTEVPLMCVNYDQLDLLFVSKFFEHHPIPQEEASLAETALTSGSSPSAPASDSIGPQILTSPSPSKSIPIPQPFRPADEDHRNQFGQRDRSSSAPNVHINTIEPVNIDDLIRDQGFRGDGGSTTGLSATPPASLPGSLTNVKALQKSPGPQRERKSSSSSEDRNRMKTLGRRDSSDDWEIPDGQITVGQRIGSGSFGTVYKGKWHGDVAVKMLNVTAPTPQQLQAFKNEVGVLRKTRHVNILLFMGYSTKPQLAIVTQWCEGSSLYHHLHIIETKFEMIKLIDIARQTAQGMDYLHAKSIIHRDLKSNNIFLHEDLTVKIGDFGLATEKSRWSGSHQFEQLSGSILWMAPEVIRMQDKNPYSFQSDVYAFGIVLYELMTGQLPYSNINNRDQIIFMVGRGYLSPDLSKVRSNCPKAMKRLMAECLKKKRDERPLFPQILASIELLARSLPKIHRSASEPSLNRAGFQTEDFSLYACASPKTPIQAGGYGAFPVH

For the compound `CCCS(=O)(=O)Nc1ccc(F)c(C(=O)Nc2cnc3cc(N4CCCC4)nn3c2)c1F` [Example 17, 2,6-difluoro-3-(propylsulfonamido)-N-(2-(pyrrolidin-1-yl)pyrazolo[1,5-a]pyrimidin-6-yl)benzamide], the IC50 in assay [1] (setting [3]) was 367 nM; in assay [2], 664 nM.

Turning to `CCCS(=O)(=O)Nc1ccc(F)c(C(=O)Nc2cnc3cc(-c4ccccc4)nn3c2)c1F` [Example 5, 2,6-difluoro-N-(2-phenylpyrazolo[1,5-a]pyrimidin-6-yl)-3-(propylsulfonamido)benzamide], the IC50 in assay [2] was 13.9 nM.

As to `CCCS(=O)(=O)Nc1ccc(F)c(C(=O)Nc2cnc3cc(-c4cccc(N5CCN(C)CC5)c4)nn3c2)c1F` [Example 11, 2,6-difluoro-N-(2-(3-(4-methylpiperazin-1-yl)phenyl)pyrazolo[1,5-a]pyrimidin-6-yl)-3-(propylsulfonamido)benzamide], the IC50 in assay [1] (setting [3]) was 4.09 nM; in assay [1] (bound stated), under 150 nM; in assay [2] it was 9.55 nM.

Turning to `COc1cc2ncc(NC(=O)c3c(F)ccc(NS(=O)(=O)N4CCCC4)c3F)cn2n1` [Example 24, 2,6-difluoro-N-(2-methoxypyrazolo [1,5-a]pyrimidin-6-yl)-3-(pyrrolidine-1-sulfonamido) benzamide], the IC50 was 260 nM in assay [1] (setting [3]), under 300 nM in assay [1] (bound stated) and 382 nM in assay [2].

As for `CCCS(=O)(=O)Nc1ccc(F)c(C(=O)Nc2cnc3cc(OC)nn3c2)c1F` [Example 1, 2,6-difluoro-N-(2-methoxypyrazolo[1,5-a]pyrimidin-6-yl)-3-(propylsulfonamido)benzamide], the IC50 was 53.2 nM in assay [1] (setting [3]), under 150 nM in assay [1] (bound stated) and 68.8 nM in assay [2].

With `CCCS(=O)(=O)Nc1ccc(F)c(C(=O)Nc2cnc3cc(OCCOC)nn3c2)c1Cl` [Example 34, 2-chloro-6-fluoro-N-(2-(2-methoxyethoxy)pyrazolo[1,5-a]pyrimidin-6-yl)-3-(propylsulfonamido) benzamide], the IC50 in assay [1] (setting [3]) is 46.1 nM; in assay [1] (bound stated), under 150 nM; in assay [2], 126 nM.

Consider `COc1cc2ncc(NC(=O)c3c(Cl)ccc(NS(=O)(=O)CCCF)c3F)cn2n1` [Example 22, 6-chloro-2-fluoro-3-(3-fluoropropyl-sulfonamido)-N-(2-methoxypyrazolo [1,5-a]pyrimidin-6-yl)benzamide], for which the figures for the IC50 in assay [1] (setting [3]), in assay [1] (bound stated) and in assay [2] were 7.78 nM, under 150 nM and 42.8 nM, respectively.

As to `CCCS(=O)(=O)Nc1ccc(F)c(C(=O)Nc2cnc3cc(-c4cccnc4)nn3c2)c1F` [Example 10, 2,6-difluoro-3-(propylsulfonamido)-N-(2-(pyridin-3-yl)pyrazolo[1,5-a]pyrimidin-6-yl)benzamide], the 50% inhibitory concentration (IC50) is 14.7 nM in assay [1] (setting [3]), under 150 nM in assay [1] (bound stated) and 26.7 nM in assay [2].
